PMC11189555, “Aryl amino acetamides prevent Plasmodium falciparum ring development via targeting the lipid-transfer protein PfSTART1” (Nature Communications, 2024)
Like-named read-outs stand apart in the source and are kept apart here.

Tests used:
[1] = tested on: 3D7 P. falciparum parasites; experiment: Growth inhibition assay (72 h, LDH activity); type: cell-based, Plasmodium falciparum; details: for inhibition / EC50: Plasmodium falciparum; for inhibition: 3D7, 3D7, read-out: NORMALISED (growth inhibition, LDH absorbance)
In short: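 Synchronised ring-stage P. falciparum (0.3-0.6% parasitemia, 2% haematocrit) grown 72 h in serial compound dilutions, sometimes with 0, 0.25 or 2.5 mM glucosamine. Growth read as LDH activity (Malstat/NBT, A650) after freeze-thaw, normalised to DMSO and uninfected RBC. EC50 by nonlinear regression.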

[2] = tested on: PopD-D7 M-833 resistant clone (PfSTART1 N309K); experiment: Growth inhibition assay (72 h, LDH activity); type: cell-based, Plasmodium falciparum
In short: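 Synchronised ring-stage 3D7-derived clones (0.3-0.6% parasitemia, 2% haematocrit) grown 72 h in compound serial dilutions, some with 0, 0.25 or 2.5 mM glucosamine. Growth read as LDH activity after freeze-thaw (Malstat/NBT, A650), normalised to DMSO and uninfected RBC; EC50 from variable-slope log(inhibitor) fit.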

in vitro = details: human

SMILES: CC(C)(Nc1ccc(Cl)c(S(=O)(=O)N2CCOCC2)c1)C(=O)Nc1ccc(F)c(Cl)c1 [W-991]
- inhibition ([1]; 0.25 mM GlcN, dilution point 1 of 10, starting concentration 100 nM): 94.1%
- inhibition ([1]; 0.25 mM GlcN, dilution point 2 of 10 from starting concentration 100 nM): 94.3%
- inhibition ([1]; 0.25 mM GlcN, dilution point 3 of 10 from starting concentration 100 nM): 95.3%
- inhibition ([1]; 0.25 mM GlcN, dilution point 4 of 10 from starting concentration 100 nM): 91.5%
- inhibition ([1]; 2.5 mM GlcN, dilution point 1 of 10, starting concentration 100 nM): 89.4%
- inhibition ([1]; 2.5 mM GlcN, dilution point 2 of 10 from starting concentration 100 nM): 91.3%
- inhibition ([1]; 2.5 mM GlcN, dilution point 3 of 10 from starting concentration 100 nM): 88.4%
- inhibition ([1]; 2.5 mM GlcN, dilution point 4 of 10 from starting concentration 100 nM): 86.4%
- inhibition ([1]; 2.5 mM GlcN, dilution point 5 of 10 from starting concentration 100 nM): 65.7%
- inhibition ([1]; 2.5 mM GlcN, dilution point 6 of 10 from starting concentration 100 nM): 40.2%
- EC50 ([1]; 3D7, 72 h, Supplementary Table 1, 3D7, 72 h, read-out: EC50): 0.72 nM
- EC50 ([1]; 3D7, Fig 4C, 3D7, 0 mM GlcN, n = 3, read-out: EC50 W-991 (95% confidence interval)): 0.942 nM
- EC50 ([1]; 3D7, Fig 4C, 3D7, 0.25 mM GlcN, n = 3, read-out: EC50 W-991 (95% confidence interval)): 0.908 nM
- EC50 ([1]; 3D7, Fig 4C, 3D7, 2.5 mM GlcN, n = 3, read-out: EC50 W-991 (95% confidence interval)): 0.787 nM
- EC50 ([1]; 3D7, text on structure activity relationship (Fig 4A), read-out: EC50, antiparasitic activity): 7 nM
- effect of GlcN addition on EC50 ([1]; control 3D7, Fig 4C): did not change the EC50
- EC50 ([2]; Plasmodium falciparum, Supplementary Table 1, PopD-D7 (N309K), 72 h, read-out: EC50): > 200 nM
- resistance of the line compared with 3D7 ([2]; PopD-D7 (N309K), Fig 4B): highly resistant
- (av-uRBC) / (DMSO-uRBC) x100 ([2]; PopD-D7, 0.0762079 nM, biological replicate 1): 96.5635
- (av-uRBC) / (DMSO-uRBC) x100 ([2]; PopD-D7, 0.0762079 nM, biological replicate 2): 102.6
- (av-uRBC) / (DMSO-uRBC) x100 ([2]; PopD-D7, 0.0762079 nM, biological replicate 3): 87.8712
- (av-uRBC) / (DMSO-uRBC) x100 ([2]; PopD-D7, 0.228624 nM, biological replicate 1): 100.291
- (av-uRBC) / (DMSO-uRBC) x100 ([2]; PopD-D7, 0.228624 nM, biological replicate 2): 103.59
- (av-uRBC) / (DMSO-uRBC) x100 ([2]; PopD-D7, 0.228624 nM, biological replicate 3): 90.7443
- (av-uRBC) / (DMSO-uRBC) x100 ([2]; PopD-D7, 0.685871 nM, biological replicate 1): 102.374
- (av-uRBC) / (DMSO-uRBC) x100 ([2]; PopD-D7, 0.685871 nM, biological replicate 2): 101.183
- (av-uRBC) / (DMSO-uRBC) x100 ([2]; PopD-D7, 0.685871 nM, biological replicate 3): 89.0089
- (av-uRBC) / (DMSO-uRBC) x100 ([2]; PopD-D7, 2.05761 nM, biological replicate 1): 98.4575
- (av-uRBC) / (DMSO-uRBC) x100 ([2]; PopD-D7, 2.05761 nM, biological replicate 2): 102.962
- (av-uRBC) / (DMSO-uRBC) x100 ([2]; PopD-D7, 2.05761 nM, biological replicate 3): 86.5214
- (av-uRBC) / (DMSO-uRBC) x100 ([2]; PopD-D7, 6.17284 nM, biological replicate 1): 97.3005
- (av-uRBC) / (DMSO-uRBC) x100 ([2]; PopD-D7, 6.17284 nM, biological replicate 2): 103.791
- (av-uRBC) / (DMSO-uRBC) x100 ([2]; PopD-D7, 6.17284 nM, biological replicate 3): 87.2349
- (av-uRBC) / (DMSO-uRBC) x100 ([2]; PopD-D7, 18.5185 nM, biological replicate 1): 94.5325
- (av-uRBC) / (DMSO-uRBC) x100 ([2]; PopD-D7, 18.5185 nM, biological replicate 2): 103.019
- (av-uRBC) / (DMSO-uRBC) x100 ([2]; PopD-D7, 18.5185 nM, biological replicate 3): 88.7968
- (av-uRBC) / (DMSO-uRBC) x100 ([2]; PopD-D7, 55.5556 nM, biological replicate 1): 87.2483
- (av-uRBC) / (DMSO-uRBC) x100 ([2]; PopD-D7, 55.5556 nM, biological replicate 2): 102.262
- (av-uRBC) / (DMSO-uRBC) x100 ([2]; PopD-D7, 55.5556 nM, biological replicate 3): 77.42
- (av-uRBC) / (DMSO-uRBC) x100 ([2]; PopD-D7, conc. 166.667 nM, Biological replicate 1 (2021-10-25)): 74.488
- (av-uRBC) / (DMSO-uRBC) x100 ([2]; PopD-D7, conc. 166.667 nM, Biological replicate 2 (2021-11-03)): 97.8669
- (av-uRBC) / (DMSO-uRBC) x100 ([2]; PopD-D7, conc. 166.667 nM, Biological replicate 3 (2021-11-11)): 58.6579
- (av-uRBC) / (DMSO-uRBC) x100 ([2]; PopD-D7, conc. 500 nM, Biological replicate 1 (2021-10-25)): 40.3034
- (av-uRBC) / (DMSO-uRBC) x100 ([2]; PopD-D7, conc. 500 nM, Biological replicate 2 (2021-11-03)): 75.4488
- (av-uRBC) / (DMSO-uRBC) x100 ([2]; PopD-D7, conc. 500 nM, Biological replicate 3 (2021-11-11)): 31.855
- Fold change compared to 3D7 ([2]; Supplementary Table 1, EC50 on PopD-D7 vs 3D7): > 278 fold
- CC50 (in vitro): 29000 nM
